Entries after “also recorded” stand apart in the source; their conditions may differ. Counter-ions that a name gives are not always drawn.
Assays:
[1] = Cytotoxicity in HepG2 cells (CellTiter-Glo); assay type: cell-based; details: human, HepG2 cell line, ATP quantification
Procedure: (§1) To determine compound toxicity we used the HepG2 cell line (human hepatocellular carcinoma, ATCC HB-8065) as a widely used cell-based assay. The cells were maintained in MEM (Gibco) supplemented with 5% heat-inactivated FBS, 1 mM Sodium pyruvate (Gibco) and 1X MEM amino acids solution (Sigma). Briefly, cells were added to white-bottomed 96-well plates containing 100 μL of serial 2-fold dilutions of the H1RAs. After 24 hours of culture at 37 °C, the percentage of viable cells was determined by ATP quantification using the CellTiter-Glo luminescent Cell Viability Assay (Promega) according to the manufacturer’s instructions. […] At least three different assays were carried out to determine the IVTI of each compound, which was calculated as the ratio between the CC50 obtained in the HepG2 cell line and the EC50 determined in the L. major EVC [21]. To evaluate the cytotoxicity of AZ and FX in peritoneal macrophages, adherent cells obtained from peritoneal lavage of naïve mice (10,000/well) were exposed during 24 hours at 37°C to serial drug concentrations (0.09 μM—200 μM). Cell viability was determined by CellTiter-Glo (Promega).

L. major [2] = experiment: L. major ex vivo lymph node explant culture (EVC), luminometry; assay type: cell-based, Leishmania major; details: 48 h at 34°C, luminescence
Procedure: An ex vivo explant culture (EVC) used in multiple experiments was obtained as previously described. Briefly, the mice were inoculated on the snout and rump with 10^7 metacyclic promastigotes of L. major-LUC. At 3 weeks post-infection (p.i.), the draining lymph nodes (retropharyngeal and sub-iliac) of infected animals were aseptically removed, infiltrated with 2 mg/mL of collagenase D (Roche) and incubated for 30 minutes at 37°C [21]. The cell suspension was washed in DMEM, and re-suspended in 2X supplemented culture medium, composed of DMEM (Cellgro), 10% heat-inactivated FBS (Atlanta Biologicals, Lawrenceville, GA), 2 mM Sodium pyruvate (Sigma, St. Louis MO), 2X MEM amino acids solution (Sigma), and 20 mM HEPES buffer (Cellgro). The EVC 100,000-cell suspension in 100 μL was dispensed in white luminometry plates (Costar) and exposed to 2-fold serial dilutions of 2X H1RAs in 100 μL DMEM (plain culture medium).
(§2) Cells exposed to compounds were lysed and the luciferase signal read in a plate luminometer (FLUOstar Omega, BMG Labtech) after adding 100 μL of luciferin substrate (Promega). The percentage of parasite inhibition compared with the vehicle control was calculated as = 100 - [(parasite counts in treated cells/parasite counts in vehicle wells) x 100]. The EC50 was determined by regression analysis using GraphPad (Prism 5.0) and the mean and standard error from three different experiments was utilized to estimate the final EC50. The anti-leishmanial efficacy of compounds was evaluated using L. major-LUC promastigotes in the logarithmic phase of growth (4 days). The parasites were grown in M199 supplemented with 20% FBS, 0.1% hemin and 10 mM adenine. Then, L. major was harvested and exposed to serial 2-fold dilutions of the compounds in a 100μL volume (10^6 promastigotes/mL) in 96-well white plates. After 48 h at 28°C incubation, the parasites were pelleted by centrifugation, lysed and 100 μL of luciferin substrate was added (Promega). The luciferase signal was read as described above.

L. major [3] = experiment: L. major-infected peritoneal macrophages with or without CD3+ T cells, luminometry; assay type: cell-based, Leishmania major
Procedure: The anti-leishmanial efficacy of AZ was also evaluated in adherent peritoneal macrophages from naïve mice infected in vitro with L. major promastigotes (1 cell: 10 parasites) during 4 h at 34°C. After washing extracellular parasites, infected cells were transferred to white plates (10,000/well) and exposed to AZ. The effect of T cells on parasite burden of AZ-treated cells was evaluated using CD3T+ cells. These cells were isolated by positive selection with magnetic beads (MojoSort, Biolegend) from the lymph nodes of either uninfected or L. major-infected mice (1 infected macrophage: 2 lymphocytes ratio). Parasite burden was determined after 48 h of culture by luminometry.

[4] = test system: h1r, il-1ẞ, IL-6 expression; experiment: Gene expression by qPCR in L. major ex vivo lymph node explant culture; assay type: cell-based, mouse; details: EVC; for expression of H1R / expression of IL-1ẞ: quantitative PCR
Procedure: After 48 h of ex vivo treatments, the samples were lysed in 10 μL of IGEPAL lysis buffer (10 mM Tris-HCL ph7.4 + 0.3% IGEPAL, 0.1% BSA + 150 mM NaCl and 1,500 cells/μL) and reverse transcribed (High-Capacity cDNA Reverse Transcription Kit, ThermoFisher Sci.). Mouse h1r, il-1ẞ, and Leishmania 18s genes were amplified by qPCR using the following primers: mouse h1r: Fw- […]; Rev-[…] (PrimerBank database; ID and 31542963a1); Mouse il-1β: Fw- […]; Rev- […]); Leishmania 18s: Fw-[…]; Rev- […] [28]. Amplicons were detected with SYBR. The fold change of gene expression was estimated by the delta CT method using the host cell 18s as reference gene. The percentage of parasite load was calculated with reference to DMSO controls.

[5] = Cytotoxicity in naive mouse peritoneal macrophages (CellTiter-Glo); assay type: cell-based; details: read-out: CC50 (toxicity in peritoneal macrophages)
Procedure: as §1

[6] = set-up: method as in PMID 11316966; details: daily oral 4 mg for 21 days, chronic idiopathic urticaria; cited from earlier work
L. major [7] = experiment: In vivo efficacy in BALB/c mice infected with L. major-LUC
Procedure: Mice were infected in the rump with 10^7 opsonized promastigotes of L. major-LUC as we previously described. The animals were treated starting at day 3 p.i. for up to 10 days. AZ (0.0625 and 0.125 mg/mouse) and FX (40 and 80 mg/kg) were dissolved in sterile PBS and administered by intralesional injection (ID) or gavage (PO), respectively. Mice receiving AZ were treated 3 times at 48-hour intervals. Control mice received sterile PBS according to the route used by each H1RAs (ID or PO). Miltefosine was administered orally at doses of 25 mg/kg or 50 mg/kg for 10 days and used as positive control of parasite suppression. The clinical efficacy was assessed by comparing lesion size (LS) after 10 days of treatment compared with the negative vehicle control as described by Grogl et al.. Therefore, percent suppression was defined as [(LS negative control–LS compound) / LS negative control] x 100. A parasite suppression ≥50% compared with the untreated control was considered significant anti-leishmanial activity. Lesion size (area in mm^2 = length x width) was measured using a digital caliper (Mitutoyo; Kawasaki, Japan).
The parasite burden of individual mice was assessed in vivo at the beginning and end of the experiment using the IVIS Spectrum equipment (Perkin Elmer) by injecting the animals with 1.5 mg luciferin (GoldBio) intradermally at the infection site. The ultrasensitive IVIS camera quantitatively measures the light emitted by the luciferase-transfected L. major upon exposure to the substrate (firefly luciferin). The mice were imaged under deep anesthesia using an isoflurane vaporizer. They were placed in a supine position in the pre-warmed IVIS box and the images were taken exactly 5 minutes after luciferin injection. The analysis was performed after defining a standard region of interest (ROI) over the infection site using the Living Image software (Xenogen Corporation, Almeda, CA). This protocol allowed us to determine the parasite burden in the same animal over multiple time points. Results were expressed in units of photons per second. […] This approach is in accordance with the criteria proposed for Leishmania in deciding when a compound qualifies to progress into ‘lead’ compound identification.

[8] = test system: L. major-LUC promastigotes; experiment: L. major-LUC promastigote culture, luminometry; assay type: cell-based, Leishmania major; details: 48 h, compared with concentrations used against intracellular amastigotes
Procedure: as §2

L. infantum [9] = test system: L. infantum; set-up: method as in PMID 31002807; details: infected spleen macrophages from hamsters; cited from earlier work
L. infantum [10] = test system: L. infantum; set-up: method as in PMID 31002807, PMID 24905294; details: cited from earlier work
Leishmania mexicana = details: alone or in combination with pentostam; cited from earlier work
[11] = AZ 0.06 mg/mouse intralesional, statistically non-significant
[12] = AZ 0.125 mg/mouse intralesional x3, luminometry
[13] = FX lower-dose regimens (40 mg/kg twice a day or 80 mg/kg once a day)

CN(C)CCN(Cc1ccc(Cl)cc1)c1ccccn1 [Chloropyramine]
CC50 at 24 h [1]: 140 ± 49.6 µM
EC50 (L. major [2]): 3.87 ± 0.2 µM
EC50 (L. major [2]; listed as chloropyramine): < 10 µM

CN1CCCC(n2nc(Cc3ccc(Cl)cc3)c3ccccc3c2=O)CC1 (stereo not shown) [Azelastine]
CC50 at 24 h [1]: 45.1 ± 11.2 µM
intracellular amastigote suppression (L. major [3]; 0.5 μM, infected naive mouse peritoneal macrophages, 48 h): positive effect on intracellular amastigote suppression
parasite killing with primed T cells from infected mice (L. major [3]; in presence of AZ, versus macrophages alone or with naive lymphocytes): significantly enhanced parasite killing
decrease of the expression of IL-6 ([4]; qPCR, highly variable): 20.1± 21%
expression of H1R [4]: significantly inhibited its expression
expression of IL-1ẞ [4]: reduced the pro-inflammatory cytokine IL1-ẞ
CC50 at 24 h [5]: 0.95 µM
side effects [6]: lack of side effects
reduction of parasite burden in lymph node (L. major [7]; [11]): 15%
reduction of parasite burden in the lesion (L. major [7]; [11]): 57%
reduction of parasite load in lymph node (L. major [7]; [12]): 36%
reduction of parasite load in the lesion (L. major [7]; [12]): 87%
lesion diminution compared with untreated controls (L. major [7]; AZ 0.125 mg/mouse, three intralesional injections every other day): 52%
weight loss or observable side effect (L. major [7]; AZ intralesional, 0.125 mg/mouse, listed as AZ): no observable side effects; also recorded: None of the mice treated with this compound presented weight loss or any observable side effect
suppressive effect against cultured promastigotes [8]: suppressive effect against cultured promastigotes only when used at concentrations 100-fold higher
EC50 (L. major [2]; Leishmania major, 48 h): 0.05 ± 0.02 µM

CN1CCC(=C2c3ccccc3CC(=O)c3sccc32)CC1 [Ketotifen]
CC50 at 24 h [1]: 282 ± 22.9 µM
EC50 (L. major [2]; Leishmania major, 48 h): 11.86 ± 0.1 µM

CN(C)CC[C@@H](c1ccc(Cl)cc1)c1ccccn1 [Dexchlorpheniramine maleate]
CC50 at 24 h [1]: 177 ± 16.3 µM
EC50 (L. major [2]; Leishmania major, 48 h): 35.2 ± 6.9 µM

NCCc1c[nH]cn1 [histamine]
expression of H1R [4]: markedly increased the expression of H1R
expression of IL-1ẞ [4]: increased the expression of IL-1ẞ

CC(C)(C(=O)O)c1ccc(C(O)CCCN2CCC(C(O)(c3ccccc3)c3ccccc3)CC2)cc1 (stereo not shown) [Fexofenadine]
IC50 (L. infantum [9]): > 100 µM
reduction in lesion size (L. major [7]; FX 40 mg/kg PO twice a day): 50%
reduction in lesion size (L. major [7]; FX 80 mg/kg PO once a day): 37%
loss of body weight (L. major [7]; FX 80 mg/kg PO twice a day): ≤ 5%
reduction in lesion size compared with untreated control (L. major [7]; FX 80 mg/kg PO twice a day): 69%
reduction in parasite burden at the lesion site (L. major [7]; FX 80 mg/kg PO twice a day): 82%
reduction in parasite burden in draining lymph nodes (L. major [7]; FX 80 mg/kg PO twice a day): 81%
clinical side effects (L. major [7]; FX PO, 80 mg/kg twice a day, listed as FX, 80 mg/kg): no observable side effects; also recorded: no other clinical side effect was found
reduction of parasite load in lesions (L. major [7]; [13]): up to 59%
reduction of parasite load in lymph nodes (L. major [7]; [13]): ≤ 72%
EC50 (L. major [2]; Leishmania major, 48 h): 1.5 ± 0.18 µM

CN1CCC(=C2c3ccccc3C=Cc3ccccc32)CC1 [Cyproheptadine]
CC50 at 24 h [1]: 172 ± 41 µM

Cc1ccc(/C(=C\CN2CCCC2)c2ccccn2)cc1 [Triprolidine]
CC50 at 24 h [1]: 390 ± 27.9 µM
EC50 (L. major [2]; Leishmania major, 48 h): 11.2 ± 4.2 µM

c1ccc2c(c1)Sc1ccccc1N2CC1CN2CCC1CC2 (stereo not shown) [Mequitazine]
CC50 at 24 h [1]: 50.3 ± 8.75 µM
EC50 (L. major [2]): 4.53 ± 3.9 µM
EC50 (L. major [2]; listed as mequitazine): < 10 µM

CN1CCN2c3ccccc3Cc3ccccc3C2C1 (stereo not shown) [Mianserin]
CC50 at 24 h [1]: 157 ± 19 µM

C(=C\c1ccccc1)/CN1CCN(C(c2ccccc2)c2ccccc2)CC1 [cinnarizine]
parasite load in hamster spleen (L. infantum [10]): failed to significantly decrease the parasite load

CCCCCCCCCCCCCCCCOP(=O)([O-])OCC[N+](C)(C)C [Miltefosine]
CC50 at 24 h [1]: 74.9 ± 5.01 µM
EC50 (L. major [2]; Leishmania major, 48 h): 1.64 ± 0.26 µM

CN/C(=N/CCSCc1nc[nH]c1C)NC#N [cimetidine]
treatment efficacy (Leishmania mexicana): effective

C[C@@H]1[C@H](O)[C@@H](C)/C=C/C=C/C=C/C=C/C=C/C=C/C=C/[C@H](O[C@@H]2O[C@H](C)[C@@H](O)[C@H](N)[C@@H]2O)C[C@@H]2O[C@](O)(C[C@@H](O)C[C@@H](O)[C@H](O)CC[C@@H](O)C[C@@H](O)CC(=O)O[C@H]1C)C[C@H](O)[C@H]2C(=O)O [Amphotericin B]
CC50 at 24 h [1]: 16.3 ± 1.49 µM
EC50 (L. major [2]; Leishmania major, 48 h): 0.5 ± 0.01 µM
